Assay results published in patent publication US7005297B2, “Use of neuroactive compounds” (Council of Scientific and Industrial Research, priority 2003, dated 2006).
Marks after values point to notes of the source that are not given here.

How the values were obtained:
[1] = system: Drosophila melanogaster; test: negative geotaxis assay, height climbed by individual flies; assay type: in vivo
Procedure: (§1) Unless otherwise mentioned, standard methods of fly manipulation were followed. Standard fly medium consisting of agar-agar, maize powder, brown sugar, dried yeast and nipagin was used. Flies were cultured at 22±1° C., 60% RH, and 12 hrs light (9 AM to 9 PM) and 12 hours dark cycle. D. melanogaster wild type Oregon-R strain was used in the experiment. To obtain males for control and drug treatment, flies from identical cultures grown in glass vials were first allowed to lay eggs in milk bottles containing medium. Flies were shifted to fresh bottles every 12 hr. First 4 sets of bottles were discarded. Flies that emerged in subsequent bottles were only used. Those that emerged in the beginning were first discarded and then flies were collected twice at 12 hr interval. Flies collected each time were kept separately in a single bottle. Two days after first collection, males and females from both the bottles were separated. Males were then pooled together and shifted to a new bottle. Flies were used for control or drug treatment two days later.
Following morning after pooling males for treatment, drugs (Sigma-Aldrich Co, St. Louis, U.S.A.) were first dissolved in distilled water at following concentration: 33.3 mg/ml of strychnine (STR), 40 mg/ml of pentylenetetrazol (PTZ), 20 mg/ml of tetraethylammonium chloride (TEA), 10 mg/ml of lithium […] (LICA) and 2 mg/ml of nicotine (NICO). Appropriate volume of freshly made drug solutions were then poured in molten fly media, and mixed thoroughly, to achieve a final concentration of 3.33 mg/ml of STR, 4 mg/ml of PTZ, 2 mg/ml of TEA, 1 mg/ml of LICA, and 0.2 mg/ml of NICO. For control, i.e., normal food (NF), distilled water of same volume as drug solution was added in the medium and mixed. Following this, the molten media was dispensed in glass vials, stored overnight at 4° C. and then used for above treatment of flies. Thirty male flies were shifted to each of the […] treatment vials, NF, STR, PTZ, TEA, LICA and NICO. Flies were maintained at 22±1° C., 60% RH, and 12 hrs light (9 AM to 9 PM) and 12 hours dark cycle.
On 22nd day of the beginning of drug treatment, three males from each treatment were separately mated to a single virgin female each. The females were grown on NF and were never exposed to any drug at any time. The F1 progenies resulting from each pair mating were pooled together before being further used. F2 generation was obtained through mating in mass the F1 progenies. F1 to F2 flies were never exposed to any drug at any time.
Negative geotaxis assays for measuring height climbed and climbing speed, and horizontal locomotion assay for measuring distance walked—were performed at room temperature, between 9 AM to 9 PM. They were all performed at a specified area in a room, where same light sources were always used. While measuring various locomotor activities, extreme care was taken to ensure that the room is quiet, and the table onto which assays were performed undisturbed and vibration free. Utmost care was taken to ensure identical handling of flies, in minutest details. For measuring height climbed, climbing speed and distance walked, a single fly was randomly selected at a time. This was achieved by first inverting flies from a given treatment vial into an empty vial and then continuously and gently shaking and inverting both the vials in such a way that a single fly is finally trapped in the empty vial. Once trapped, all the three locomotor activities were measured using the same fly, height climbed, climbing speed and distance walked, in that order. One fly each from NF, STR, PTZ, PILO, TEA, LICA, and ESD, selected randomly, was first scored and then the same exercise was repeated for another two flies. Once a fly was scored for all the three locomotor activities, it was discarded. Flies were particularly checked for intact legs and wings, before they were used in negative geotaxis and horizontal locomotion assays.

[2] = system: Drosophila melanogaster; settings: F1 male and female progeny of drug-fed fathers, routine examination over 30 days
Procedure: as §1
Following morning after pooling males for treatment, drugs (Sigma-Aldrich Co, St. Louis, U.S.A.) were first dissolved in distilled water at following concentration: 33.3 mg/ml of strychnine (STR), 40 mg/ml of pentylenetetrazol (PTZ), 20 mg/ml of tetraethylammonium chloride (TEA), 10 mg/ml of lithium chloride (LICA) and 2 mg/ml of nicotine (NICO). […]

[3] = F1 males never exposed to drug, fathers drug-fed, assayed on 31st day of emergence, n=30, NF control 25.1
[4] = F2 females (second batch) never exposed to drug, grandfathers drug-fed, 8th day of emergence, n=30, NF control 21.3
[5] = drug exposed parent males, day 13 of treatment
[6] = drug-fed parent males, day 13 of treatment, drug in fly medium (STR 3.33, PTZ 4, TEA 2, LICA 1, NICO 0.2 mg/ml), n=30, NF control 20.86, asterisks = t-test vs NF (*5%, **1%, ***0.1%)

Compound | Height climbed by flies, Mean (F1) [1, 3] | Height climbed by flies, Mean (F2) [1, 4] | change in height climbed compared to normal food (NF) [1, 5] | Height climbed by flies, Mean (Parents) [1, 6] | Height climbed by flies, Mean (F1) ([1]; in vivo) | Height climbed by flies, Mean (F2) ([1]; in vivo) | Height climbed by flies, Mean (Parents) ([1]; in vivo) | change in height climbed compared to normal food (NF) ([1]; in vivo) | gross locomotor activity compared to control [2]
CC[N+](CC)(CC)CC.[Cl-] [TEA, tetraethylammonium chloride] | 12.43*** cm | 29.46*** cm | increase in the height climbed | 32.4*** cm |  |  |  |  | 
C1CCc2nnnn2CC1 [PTZ, pentylenetetrazol] |  |  | increase in the height climbed |  |  |  |  |  | 
O=C1C[C@@H]2OCC=C3CN4CC[C@]56c7ccccc7N1[C@H]5[C@H]2[C@H]3C[C@H]46 [STR, strychnine] | 16.56*** cm | 29.83*** cm |  | 28** cm |  |  |  |  | 
O=C([O-])[O-].[Li+].[Li+] [LICA, lithium carbonate] | 17.7*** cm | 27.53** cm | increase in the height climbed | 32.96*** cm |  |  |  |  | 
CN1CCCC1c1cccnc1 (centres unmarked) [NICO, nicotine] |  |  |  |  | 10.86*** cm | 29.36*** cm | 32.16*** cm | increase in the height climbed | climbed very slowly
